# Measurements reported in patent publication US12544381B2, “Topical formulation for JAK inhibitor” (Incyte Corporation, priority 2010, dated 2026).
# Where a name gives a salt, the structure may show the parent alone.
# Test: Solubility studies (Example 4)
# Format: physicochemical
# Method: In order to determine the solubility of (R)-3-(4-(7H-pyrrolo[2,3-d]pyrimidin-4-yl)-1H-pyrazol-1-yl)-3-cyclopentylpropanenitrile (free base) or its phosphate salt, approximately 5 mL of a potential solvent was added to approximately 50 mg of the API or its salt at room temperature. The mixtures were suspended and rotated on a wheel. If the mixtures became clear solutions, more solid material was added. The suspensions were then suspended over 24 hours. The samples were filtered through 0.2 micron filters. The liquid portions were collected and diluted with 50/50 water methanol/water. The concentrations of the diluted samples were analyzed by HPLC. When the free base or salt was fairly insoluble, the results are approximate only.
structure (smiles),measurement,setting,value
"N#CC[C@H](C1CCCC1)n1cc(-c2ncnc3[nH]ccc23)cn1 [Phosphate Salt, (R)-3-(4-(7H-pyrrolo[2,3-d]pyrimidin-4-yl)-1H-pyrazol-1-yl)-3-cyclopentylpropanenitrile Phosphoric Acid Salt]",Solubility,Benzyl alcohol,3 mg/mL
same,Solubility,Ethanol,7.3 mg/mL
same,Solubility,Glycerin,11 mg/mL
same,Solubility,Isopropanol,0.6 mg/mL
same,Solubility,Isosorbide dimethyl ether,0.4 mg/mL
same,Solubility,Olelyl alcohol,0.1 mg/mL
same,Solubility,PEG 200,23 mg/mL
same,Solubility,PEG 300,14 mg/mL
same,Solubility,Propylene glycol,24 mg/mL
same,Solubility,Transcutol,10 mg/mL
same,Solubility,Trolamine,51 mg/mL
same,Solubility,Water/PEG 200 (50/50),23 mg/mL
same,Solubility,Water/glycerin/trolamine (40/40/20),18 mg/mL
same,Solubility,Water/glyercin (50/50),21 mg/mL
same,Solubility,"Water, room temperature",2.7 mg/mL
same,Solubility,"pH 4, citric buffer, 0.1M",1.5 mg/mL
same,Solubility,"pH 6, citric buffer, 0.1M",0.2 mg/mL
